Data: patent US20260240842A1, “METHODS TO PREVENT THERAPY RESISTANCE IN MELANOMA VIA BLOCKING GENOMIC INSTABILITY” (THE REGENTS OF THE UNIVERSITY OF CALIFORNIA, priority 2022, published 2026)

Test system: p-DNA-PKcs (S2056)
Test: Immunofluorescence of p-DNA-PKcs (S2056) nuclear foci in early on-treatment PDX tumors
Format: in vivo, NSG mice
Conditions: with or without MEKi; Mel_PDX1, 11 days; FIG. 13F
Text: FIGS. 13A-13H. In vivo impacts of DNA-PKi when combined with MAPKi. FIGS. 13A and 13B: Long-term follow-up of tumor volumes (13A, BRAFi+MEKi, n=5 tumors; BRAFi+MEKi+DNA-PKi, n=6 tumors) (13B, MEKi, n=6 tumors; MEKi+DNAP-PKi, n=6 tumors) and average mice body weights for 13A and 13B. Related to experiments in FIGS. 7B and 7E, respectively. FIGS. 13C and 13D, Tumor volumes (mean±SEM) of two examples of tumor models treated short-term with vehicle or indicated single versus combined agents. Inhibitors and dosages are identical to those in FIGS. 7C and 7E, respectively. The numbers of tumors and their sizes are shown in the photographs (right) taken at the times of tumor harvest (end points). FIGS. 13E to 13G: Immunofluorescence of p-ERK (13E), p-DNA-PKcs (S2056) (13F), or γH2AX (13G) levels in Mel_PDX1 tumor model, treated with vehicle or indicated single versus combined agents for 11 days (shown in 13C). DAPI, nuclear stain. Scale bar, 50 μm (13E) and 20 μm (13F and 13G). Representative images shown for two tumors analyzed per group. Quantification of p-DNA-PKcs signals obtained by taking the average of positively stained foci per nucleus (13F, representative of 4 fields). Quantification of γH2AX signals analyzed either by percentage of cells with γH2AX foci or percentage of cells with greater than 5 γH2AX foci (13G, representative of 4 fields). […]

## O=c1cc(N2CCOCC2)oc2c1ccc1ccccc12 [NU7026]
  nuclear p-DNA-PKCS foci: suppressed nuclear p-DNA-PKCS foci
